The values that follow come from ChEMBL document CHEMBL5465560, “Selectivity Literature for EUbOPEN Chemogenomic Library” (2024).

Numbering of substitutions follows the chain as printed.

In assay [1] the test system is T1, Receptor-type tyrosine-protein kinase FLT3 (Homo sapiens), P36888 [N841I].
T1 sequence (whole entry): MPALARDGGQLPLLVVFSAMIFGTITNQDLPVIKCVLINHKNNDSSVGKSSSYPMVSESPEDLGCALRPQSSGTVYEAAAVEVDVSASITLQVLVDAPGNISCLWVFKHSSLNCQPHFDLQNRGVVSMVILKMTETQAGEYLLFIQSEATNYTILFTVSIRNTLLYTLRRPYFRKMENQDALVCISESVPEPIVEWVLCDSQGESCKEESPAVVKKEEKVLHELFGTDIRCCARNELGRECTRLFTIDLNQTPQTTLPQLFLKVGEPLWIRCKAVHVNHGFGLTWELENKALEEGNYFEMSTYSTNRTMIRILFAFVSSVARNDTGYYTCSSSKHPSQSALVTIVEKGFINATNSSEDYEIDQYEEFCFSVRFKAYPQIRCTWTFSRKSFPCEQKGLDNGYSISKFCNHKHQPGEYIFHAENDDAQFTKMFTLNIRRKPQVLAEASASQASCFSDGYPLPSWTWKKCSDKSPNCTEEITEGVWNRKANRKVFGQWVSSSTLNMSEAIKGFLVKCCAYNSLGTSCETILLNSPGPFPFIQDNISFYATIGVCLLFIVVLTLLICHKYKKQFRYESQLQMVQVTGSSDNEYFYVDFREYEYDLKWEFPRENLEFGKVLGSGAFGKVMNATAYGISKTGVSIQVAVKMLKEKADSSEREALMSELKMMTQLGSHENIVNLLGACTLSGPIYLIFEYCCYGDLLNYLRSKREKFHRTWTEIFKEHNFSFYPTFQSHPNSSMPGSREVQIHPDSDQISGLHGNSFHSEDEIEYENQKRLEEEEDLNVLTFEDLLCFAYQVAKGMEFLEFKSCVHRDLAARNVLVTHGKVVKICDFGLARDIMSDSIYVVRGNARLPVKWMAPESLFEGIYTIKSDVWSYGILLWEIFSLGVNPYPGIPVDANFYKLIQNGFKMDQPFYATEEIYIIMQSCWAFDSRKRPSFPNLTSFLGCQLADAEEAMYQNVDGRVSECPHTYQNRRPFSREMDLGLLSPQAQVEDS
Nature of the assay: (§1) Selectivity interaction (KinomeScan (DiscoverX)) EUB0001619a FLT3. The conditions noted are these: at 1 µM.

Assay [2] concerns the target Receptor-type tyrosine-protein kinase FLT3 (Homo sapiens) (UniProt P36888). Described as §1. The conditions noted are these: at 1 µM.
Assay [3] has as its system T2, Receptor-type tyrosine-protein kinase FLT3 (Homo sapiens), P36888 [R834Q].
T2 sequence (whole entry): T1 sequence (whole entry) with R834Q, I841N
Described as §1. The settings on record: at 1 µM.

Assay [4] deals with T3, Receptor-type tyrosine-protein kinase FLT3 (Homo sapiens), P36888 [K663Q].
T3 sequence (whole entry): T1 sequence (whole entry) with K663Q, I841N
The assay is described as §1. The conditions noted are these: at 1 µM.

In assay [5] the target is Casein kinase I isoform gamma-2 (Homo sapiens) (UniProt P78368). The experiment in a line: Selectivity interaction (KinomeScan (DiscoverX)) EUB0000655a CSNK1G2. The conditions noted are these: at 10 µM.
Casein kinase I isoform gamma-2 (Homo sapiens), sequence (P78368 whole entry, looked up, canonical isoform): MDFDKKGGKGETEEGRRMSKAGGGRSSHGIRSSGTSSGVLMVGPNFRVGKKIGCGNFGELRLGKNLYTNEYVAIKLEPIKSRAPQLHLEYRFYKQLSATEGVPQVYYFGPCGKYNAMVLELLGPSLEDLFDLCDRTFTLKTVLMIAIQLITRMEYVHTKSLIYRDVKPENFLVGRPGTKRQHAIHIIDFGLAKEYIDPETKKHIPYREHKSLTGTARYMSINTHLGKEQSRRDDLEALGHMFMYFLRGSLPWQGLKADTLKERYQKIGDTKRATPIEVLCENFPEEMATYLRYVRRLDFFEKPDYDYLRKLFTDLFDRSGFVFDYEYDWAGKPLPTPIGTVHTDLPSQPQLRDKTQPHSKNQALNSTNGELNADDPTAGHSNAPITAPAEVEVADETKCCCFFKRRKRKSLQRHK

As to `N#Cc1cccc(-c2c[nH]c3ncnc(N4CCOCC4)c23)c1`, the % of control was found to be 100% in assay [1], 89% in assay [2], 93% in assay [3] and 71% in assay [4].
In the case of `CN(C)CCOc1ccc(-c2nc(-c3ccncc3)c(-c3ccc4c(c3)CC/C4=N\O)[nH]2)cc1`, the % of control in assay [5] came to 72%.
